Patent US20050032783A1, “Use of CGRP antagonists in treatment and prevention of hot flushes in prostate cancer patients” (Boehringer Ingelheim International GmbH, priority 2003, published 2005)

Tested on: increased blood flow through the facial skin caused by endogenous CGRP
Assay: Facial skin blood flow increase after trigeminal ganglion stimulation in marmosets (laser Doppler)
Assay type: in vivo
Conditions: anaesthetised marmosets; i.v. 5 min before the 2nd and 3rd stimulation periods; trigeminal ganglion stimulation 10Hz, 2 mA, 2 msec, for 30 sec
Description: The efficacy of the following test substances was characterised by determining the dose administered i.v. which reduces by 50% the increased blood flow through the skin of the face which has been brought about by endogenous CGRP: • (A) =1-[N^2-[3,5-dibromo-N-[[4-(3,4-dihydro-2(1H)-oxoquinazolin-3-yl)-1-piperidinyl]carbonyl]-D-tyrosyl]-L-lysyl]-4-(4-pyridinyl)-piperazine, • (B) =1-[4-amino-3,5-dibromo-N-[[4-(2,3,4,5-tetrahydro-2(1 H)-oxo-1,3-benzodiazepin-3-yl)-1-piperidinyl]carbonyl]-D-phenylalanyl]-4-(1-piperidinyl)-piperidine, • (AC) =(R,S)-1-[4-[4-(3,4-dihydro-2(1H)-oxoquinazolin-3-yl)-1-piperidinyl]-2-[(3,5-dibromo-4-methylphenyl)methyl]-1,4-dioxobutyl]-4-(4-methyl-1-piperazinyl)-piperidine, • (AM) =1-[4-amino-3,5-dibromo-N-[[4-(3,4-dihydro-2(1H)-oxoquinazolin-3-yl)-1-piperidinyl]carbonyl]-D-phenylalanyl]-4-(1-piperidinyl)-piperidine, • (DA =sumatriptan and • (DB) =zolmitriptan. Description of Method:
Marmosets of both sexes (300-400 g) are anaesthetised with pentobarbital (initially with 30 mg/kg, i.p., followed by infusion of 6 mg/kg/h, […].). The body temperature is maintained at 37° C. using a heating plate. Pancurmium is administered as a muscle relaxant (initially 1 mg/kg, 0.5 mg after each hour thereafter). The animal's head is secured in a stereotactical apparatus. After the skin on the head has been opened using a lengthwise incision, a small hole is drilled in the skull and a bipolar electrode (Rhodes SNES 100) is lowered into the trigeminal ganglion.
The petrous bone serves as a guide for placing the electrode (CCX-Digital X-ray apparatus). The position of the electrode in the ganglion is monitored at the end of each experiment. The stimulation parameters are: • 10Hz, 2 mA, 2 msec, for 30 sec.
The blood flow in the micro-vessels of the facial skin is determined by laser Doppler flow measurement using a PeriFlux Laser Doppler System.
The animals are exposed to 2 to 3 stimulation periods at intervals of 30 min in each case. The first stimulation serves as a reference value for the other stimulations. The test substances are administered i.v. 5 min before the 2nd and 3rd stimulation periods.

Compound	50% dose = i.v. dose which reduces by 50% the increased blood flow through the facial skin caused by endogenous CGRP [mg/kg]
CNS(=O)(=O)Cc1ccc2[nH]cc(CCN(C)C)c2c1 [Substance DA, sumatriptan, reference compound]	0.280
CN(C)CCc1c[nH]c2ccc(C[C@H]3COC(=O)N3)cc12 [Substance DB, zolmitriptan, reference compound]	0.035
Nc1c(Br)cc(C[C@@H](NC(=O)N2CCC(N3CCc4ccccc4NC3=O)CC2)C(=O)N2CCC(N3CCCCC3)CC2)cc1Br [Substance B, 1-[4-amino-3,5-dibromo-N-[[4-(2,3,4,5-tetrahydro-2(1H)-oxo-1,3-benzodiazepin-3-yl)-1-piperidinyl]carbonyl]-D-phenylalanyl]-4-(1-piperidinyl)-piperidine]	0.042
Nc1c(Br)cc(C[C@@H](NC(=O)N2CCC(N3Cc4ccccc4NC3=O)CC2)C(=O)N2CCC(N3CCCCC3)CC2)cc1Br [Substance AM, 1-[4-amino-3,5-dibromo-N-[[4-(3,4-dihydro-2(1H)-oxoquinazolin-3-yl)-1-piperidinyl]carbonyl]-D-phenylalanyl]-4-(1-piperidinyl)-piperidine]	0.046
Cc1c(Br)cc(C[C@H](CC(=O)N2CCC(N3Cc4ccccc4NC3=O)CC2)C(=O)N2CCC(N3CCN(C)CC3)CC2)cc1Br (racemic) [Substance AC, (R,S)-1-[4-[4-(3,4-dihydro-2(1H)-oxoquinazolin-3-yl)-1-piperidinyl]-2-[(3,5-dibromo-4-methylphenyl)methyl]-1,4-dioxobutyl]-4-(4-methyl-1-piperazinyl)-piperidine]	0.018
NCCCC[C@H](NC(=O)[C@@H](Cc1cc(Br)c(O)c(Br)c1)NC(=O)N1CCC(N2Cc3ccccc3NC2=O)CC1)C(=O)N1CCN(c2ccncc2)CC1 [Substance A, 1-[N^2-[3,5-dibromo-N-[[4-(3,4-dihydro-2(1H)-oxoquinazolin-3-yl)-1-piperidinyl]carbonyl]-D-tyrosyl]-L-lysyl]-4-(4-pyridinyl)-piperazine]	0.003
